Results: US9951226B2, “Compound based on cyanine scaffold for diagnosis sepsis by selectively detect glutathione” (EWHA UNIVERSITY—INDUSTRY COLLABORATION FOUNDATION, priority 2014, dated 2018)

How the values were obtained:
[1] = Glutathione selectivity: absorption/fluorescence spectrum with various amino acids in HEPES buffer; assay type: biochemical; conditions: 10 μM compound
Experimental: 10 μM of the compound prepared in Example 2 was treated to HEPES (4-(2-hydroxyethyl)piperazine-1-ethanesulfonic acid) buffer (10 mM, pH=7.4) containing 10% DMSO and 100 μM of each glutathione, cysteine, homocysteine, dithiothreitol, phenylalanine, histidine, glutamine, lysine, glutamate, glycine, serine, alanine, arginine, methionine, and tyrosine, followed by observation of fluorescence spectrum at 25° C. by using RF-5310/PC fluorescence spectrometer (Shimada, 1 cm quartz cell).
An experiment was performed by the same manner as described in Experimental Example 3 except that the fragment 1 or the fragment 2 was used instead of the compound prepared in Example 2. […] To disclose the reason in relation to the above, the 3-dimensional structure of each of the compound of Example 1, the compound of Example 2, and the fragment 1 or the fragment 2, was investigated along with band-gap.
10 μM of the compound prepared in Example 3 and 100 μM of each endogenous amino acid (alanine, arginine, cysteine, glutamate, glycine, glutathione, homocysteine, histidine, lysine, methionine, serine, and tyrosine) were added to HEPES (4-(2-hydroxyethyl)piperazine-1-ethanesulfonic acid) buffer (10 mM, pH=7.4) containing 10% dimethylsulfoxide (DMSO), followed by observation of absorption spectrum presented through UV-vis sepctra (Scinco 3000 spectrophotometer, 1 cm quartz cell) at 25° C.
(§1) The following experiment was performed by the same manner as described in Experimental Example <15-1> except that fluorescence spectrum was observed by using RF-5310/PC fluorescence spectrometer (Shimada, 1 cm quartz cell) instead of observing absorption spectrum via UV-vis sepctra (Scinco 3000 spectrophotometer, 1 cm quartz cell) (λex=730 nm, λem=736 nm, slit:10/10 nm).

[2] = Absorption and fluorescence spectrum according to the concentration of glutathione; assay type: biochemical
Experimental: (§2) 10 μM of the compound prepared in Example 2 and glutathione were added to HEPES (4-(2-hydroxyethyl)piperazine-1-ethanesulfonic acid) buffer (10 mM, pH=7.4) containing 10% dimethylsulfoxide (DMSO) with raising slowly the concentration of glutathione from 0 to 50 μM, during which the changes of absorption spectrum were observed using UV-vis sepctra (Scinco 3000 spectrophotometer, 1 cm quartz cell) at 25° C.
as §1, with “<4-1>” for “<15-1>”
as §2, with “Example 3” for “Example 2”, “to 100” for “to 50”
as §1, with “<16-1>” for “<15-1>”

HeLa cells = assay: Changes of glutathione concentration in the presence of an oxidant (H2O2), HeLa cells; assay type: cell-based, human
Experimental: 100 μM of H2O2, the oxidant, was treated to HeLa cells prepared in Experimental Example 2 containing glutathione, the anti-oxidant, at 37° C. for 30 minutes to induce the changes of glutathione level. 20 μM of the compound prepared in Example 2 was added thereto, followed by culture at 37° C. for 20 minutes. The cells were washed with DPBS (Dulbecco's Phosphate Buffered Saline) three times to eliminate the remaining compound, followed by imaging with confocal laser scanning microscope (Fluoview 1200, Olympus, Japan). At this time, the emitting filter with the excitation wavelength of 635 nm and the band-path (BP) of 655˜755 nm was used.

C57BL/6 mouse = assay: Detection of glutathione in a mouse model with acetaminophen (APAP), IVIS imaging; assay type: in vivo
Experimental: 200 μL of HEPES (4-(2-hydroxyethyl)piperazine-1-ethanesulfonic acid) buffer (10 mM, pH=7.4) containing 300 mg/kg of acetaminophen (APAP) known as a pain killer was administered to each C57BL/6 mouse (7˜8 weeks old, female, Jackson Laboratory) via intravenous injection. The said APAP works as a pain killer in vivo when administered at a proper dose, but when treated at over-dose, it can damage organs and also reduce in vivo glutathione. 20 minutes later, 200 μL of HEPES (4-(2-hydroxyethyl)piperazine-1-ethanesulfonic acid) buffer (10 mM, pH=7.4) containing 50 mM of the compound prepared in Example 2 was administered to the mouse via intravenous injection. 20 minutes later, the strength of fluorescence was observed by using the epifluorescence mode of In Vivo Imaging System (IVIS) spectrum (Caliper LifeSciences, USA) equipped with the filter having the wavelengths of 675 nm and 720 nm [the strength of fluorescence was measured by Living Image Software 4.3.1 (Caliper Life Sciences, USA)].

[3] = system: neutrophils of peritoneal cells; assay: Capacity of diagnosing sepsis: FACS of neutrophils of peritoneal cells from CLP sepsis mouse; assay type: cell-based; conditions: 8 hours, 10 μM compound
Experimental: According to a reference (J Vis Exp. 2011 May 7; (51). pii: 2860. doi: 10.3791/2860), C57BL/6 mouse (7˜8 weeks old, female, Jackson Laboratory) was induced with sepsis by performing CLP (cecal ligation and puncture). 8 hours later, peritoneal cells were extracted from the mouse. The cells were centrifuged and reacted to the neutrophil marker Ly6G (eFluor®450, eBioscience, Cat No. 48-5931) and 10 μM of the compound prepared in Example 2 at room temperature. 25 minutes later, 1 mL of 3% fetal bovine serum (FBS) was added thereto, followed by centrifugation at 3000 rpm for 5 minutes to wash the cells. The cells were resuspended in […] of HEPES (4-(2-hydroxyethyl)piperazine-1-ethanesulfonic acid) buffer (10 mM, pH=7.4), followed by FACS (Fluorescence Activated Cell Sorting) using the data analysis software FlowJo to observe the peaks (The setting for Alexa flour 700 fluorescence was hired, BD FACSVerse™).

[4] = 10 μM compound, glutathione not added
[5] = 10 μM compound, glutathione raised from 0 to 50 μM

CCCN1/C(=C/C=C2\CCCC(/C=C/C3=[N+](CCC)c4ccccc4C3(C)C)=C2N2CCN(S(=O)(=O)c3cccc4c(N(C)C)cccc34)CC2)C(C)(C)c2ccccc21.[I-] [Example 2, 2-((E)-2-((E)-3-((E)-2-(3,3-dimethyl-1-propylindolin-2-ylidene)ethylidene)-2-(4-(5-(dimethylamino)naphthalene-1-ylsulfonyl)piperazine-1-yl)cyclohex-1-enyl)binyl)-3,3-dimethyl-1-propyl-3H-indolium iodide]
fluorescence strength near 735 nm ([1]; 100 μM glutathione, HEPES pH 7.4, 10% DMSO, 25° C.): strong fluorescence strength
fluorescence strength at 736 nm ([1]; 100 μM other amino acids, HEPES pH 7.4, 10% DMSO): very weak fluorescence strength
fluorescence signal at around 736 nm over the time: selectivity among cysteine, homocysteine and glutathione ([1]; glutathione, cysteine, homocysteine, FIG. 5): selectively reacted to glutathione alone
absorption strength at 750 nm [2, 4]: weak absorption strength
fluorescence signal at 736 nm [2, 4]: weak fluorescence signal
absorption signal at 750 nm [2, 5]: getting stronger
fluorescence signal at 736 nm [2, 5]: getting stronger
dependence of the reaction on glutathione concentration ([2]; conclusion from absorption and fluorescence spectra): glutathione dose-dependent
red fluorescence under confocal laser scanning microscope (HeLa cells; HeLa cells pre-treated with 100 μM H2O2, 20 μM compound): red fluorescence was not observed
red fluorescence under confocal laser scanning microscope (HeLa cells; HeLa cells, 20 μM compound, 20 minutes): strong red fluorescence
reaction to oxidized glutathione, glutathione disulfide (GSSG) (HeLa cells; HeLa cells, H2O2): did not react
red fluorescence of the mouse, IVIS spectrum (C57BL/6 mouse; mouse treated with acetaminophen (APAP) 300 mg/kg together with the compound): red fluorescence was not observed
red fluorescence in liver, kidney, lung, and spleen, IVIS spectrum (C57BL/6 mouse; mouse treated with acetaminophen (APAP) together with the compound): red fluorescence was not observed
red fluorescence in liver, kidney, lung, and spleen, IVIS spectrum (C57BL/6 mouse; mouse treated with the compound alone): strong red fluorescence was observed
red fluorescence of the mouse, IVIS spectrum (C57BL/6 mouse; mouse treated with the compound alone, intravenous injection, 20 minutes): strong red fluorescence was observed
glutathione level in neutrophils detected by the compound (FACS), sepsis mouse compared with normal mouse [3]: reduced
